Results published in ChEMBL document CHEMBL5137038, “Novel quinoline-based derivatives: A new class of PDE4B inhibitors for adjuvant-induced arthritis” (Eur J Med Chem, 2022).

Target: 3',5'-cyclic-AMP phosphodiesterase 4B (Homo sapiens, UniProt Q07343)
Experiment: Inhibition of PDE4B (unknown origin) using […] as substrate incubated for 1 hr by PDElight HTS cAMP phosphodiesterase assay
Conditions: not given

Chain of 3',5'-cyclic-AMP phosphodiesterase 4B (Q07343 whole entry): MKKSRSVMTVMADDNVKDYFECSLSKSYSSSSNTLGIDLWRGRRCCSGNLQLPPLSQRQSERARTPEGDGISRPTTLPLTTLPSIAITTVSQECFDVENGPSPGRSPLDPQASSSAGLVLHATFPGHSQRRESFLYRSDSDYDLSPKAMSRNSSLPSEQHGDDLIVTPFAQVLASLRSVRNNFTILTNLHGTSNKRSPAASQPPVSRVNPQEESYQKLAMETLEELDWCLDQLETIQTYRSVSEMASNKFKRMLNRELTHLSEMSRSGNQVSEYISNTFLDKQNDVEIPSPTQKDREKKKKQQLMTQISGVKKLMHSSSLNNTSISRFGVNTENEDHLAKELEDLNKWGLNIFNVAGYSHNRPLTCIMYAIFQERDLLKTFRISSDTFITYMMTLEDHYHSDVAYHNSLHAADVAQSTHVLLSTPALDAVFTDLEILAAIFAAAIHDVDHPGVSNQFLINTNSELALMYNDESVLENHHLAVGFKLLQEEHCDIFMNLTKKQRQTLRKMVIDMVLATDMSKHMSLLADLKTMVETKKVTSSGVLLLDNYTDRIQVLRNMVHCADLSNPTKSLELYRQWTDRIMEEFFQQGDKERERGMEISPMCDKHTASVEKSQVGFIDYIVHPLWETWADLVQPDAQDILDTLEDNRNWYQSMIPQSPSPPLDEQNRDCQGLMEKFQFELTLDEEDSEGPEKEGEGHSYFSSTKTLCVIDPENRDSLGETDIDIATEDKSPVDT

| IC50 [µM] | Compound |
| --- | --- |
| 0.94 | CC(C)c1cc(C(C)C)c(S(=O)(=O)Nc2cccc(NS(=O)(=O)c3cccc4cccnc34)c2)c(C(C)C)c1 |

System: RAW264.7
Experiment: Inhibition of LPS induced NO production in mouse RAW264.7 cells preincubated for 1 hr followed by LPS addition and measured after 24 hrs by Griess reagent based assay
Format: functional, cell-based
Conditions: not given

| IC50 [µM] | Compound |
| --- | --- |
| 34.3 | COc1ccc2c(c1)c(CC(=O)O)c(C)n2C(=O)c1ccc(Cl)cc1 [INDOMETHACIN] |

System: RAW264.7
Experiment: Inhibition of LPS induced NO production in mouse RAW264.7 cells at 30 uM preincubated for 1 hr followed by LPS addition and measured after 24 hrs by Griess reagent based assay relative to control
Format: functional
Conditions: time 25 hrs

| Compound | inhibition at 30 µM [%] |
| --- | --- |
| O=S(=O)(Nc1cccc(NS(=O)(=O)c2cccc3cccnc23)c1)c1cc(Cl)cc(Cl)c1 | 29 |
| O=S(=O)(Nc1cccc(NS(=O)(=O)c2cccc3cccnc23)c1)c1ccccc1 | 23.8 |
| COc1ccc(Br)cc1S(=O)(=O)Nc1cccc(NS(=O)(=O)c2cccc3cccnc23)c1 | 16.3 |
| O=S(=O)(Nc1cccc(NS(=O)(=O)c2cccc3cccnc23)c1)c1ccc(I)cc1 | 39.5 |
| O=S(=O)(Nc1cccc(NS(=O)(=O)c2cccc3cccnc23)c1)c1cccc(C(F)(F)F)c1 | 23.9 |
| O=[N+]([O-])c1cccc(S(=O)(=O)Nc2cccc(NS(=O)(=O)c3cccc4cccnc34)c2)c1 | 28 |
| COc1ccc2c(c1)c(CC(=O)O)c(C)n2C(=O)c1ccc(Cl)cc1 [INDOMETHACIN] | 42.5 |
| O=S(=O)(Nc1cccc(NS(=O)(=O)c2cccc3cccnc23)c1)c1c(F)cccc1F | 23.6 |
| CC(C)(C)c1ccc(S(=O)(=O)Nc2cccc(NS(=O)(=O)c3cccc4cccnc34)c2)cc1 | 39.3 |
| O=S(=O)(Nc1cccc(NS(=O)(=O)c2cccc3cccnc23)c1)c1cccc(F)c1 | 17.8 |
| COc1ccc(S(=O)(=O)Nc2cccc(NS(=O)(=O)c3cccc4cccnc34)c2)c(OC)c1 | 12.8 |
| O=S(=O)(Nc1cccc(NS(=O)(=O)c2cccc3cccnc23)c1)c1ccc(C(F)(F)F)cc1 | 40.6 |
| O=S(=O)(Nc1cccc(NS(=O)(=O)c2cccc3cccnc23)c1)c1ccc(Br)cc1 | 20.2 |
| O=S(=O)(Nc1cccc(NS(=O)(=O)c2cccc3cccnc23)c1)c1ccccc1Cl | 12.1 |
| O=S(=O)(Nc1cccc(NS(=O)(=O)c2cccc3cccnc23)c1)c1ccccc1F | 30.2 |
| O=S(=O)(Nc1cccc(NS(=O)(=O)c2cccc3cccnc23)c1)c1ccc(OC(F)(F)F)cc1 | 31.6 |
| COc1ccc(S(=O)(=O)Nc2cccc(NS(=O)(=O)c3cccc4cccnc34)c2)cc1OC | 32.3 |
| O=S(=O)(Nc1cccc(NS(=O)(=O)c2cccc3cccnc23)c1)c1c(Cl)cccc1Cl | 24.7 |
| CC(C)c1ccc(S(=O)(=O)Nc2cccc(NS(=O)(=O)c3cccc4cccnc34)c2)cc1 | 41.5 |
| O=S(=O)(Nc1cccc(NS(=O)(=O)c2cccc3cccnc23)c1)c1ccccc1Br | 23.6 |
| Cc1ccc(S(=O)(=O)Nc2cccc(NS(=O)(=O)c3cccc4cccnc34)c2)cc1 | 11.4 |
| CC(=O)Nc1ccc(S(=O)(=O)Nc2cccc(NS(=O)(=O)c3cccc4cccnc34)c2)cc1 | 7.74 |
| O=S(=O)(Nc1cccc(NS(=O)(=O)c2cccc3cccnc23)c1)c1cccc(Br)c1 | 31.1 |
| O=S(=O)(Nc1cccc(NS(=O)(=O)c2cccc3cccnc23)c1)c1ccc(Cl)cc1 | 6.7 |
| O=S(=O)(Nc1cccc(NS(=O)(=O)c2cccc3cccnc23)c1)c1ccc(F)cc1 | 19 |
| O=S(=O)(Nc1cccc(NS(=O)(=O)c2cccc3cccnc23)c1)c1ccccc1C(F)(F)F | 22 |
| O=S(=O)(Nc1cccc(NS(=O)(=O)c2cccc3cccnc23)c1)c1ccccc1OC(F)(F)F | 13.2 |
| N#Cc1ccc(S(=O)(=O)Nc2cccc(NS(=O)(=O)c3cccc4cccnc34)c2)cc1 | 25.2 |
